Reference: patent US10597380B2, “Pyridazinone-based broad spectrum anti-influenza inhibitors” (Hoffmann-La Roche Inc., priority 2017, dated 2020)

System: Influenza A/WSN/33-Luciferase virus
Assay: microbe, parasite or virus in culture
Type: cell-based
Settings: A549, 72 h, luciferase signal three days later, read-out: IC50 antiviral activity (Luciferase reporter assay)

`CN(C)CCn1cncc(Nc2nn(-c3ccc(OC(F)(F)F)cc3)c(=O)c3c2CCC3)c1=O` [Example 50, 1-[[1-[2-(dimethylamino)ethyl]-6-oxo-pyrimidin-5-yl]amino]-3-[4-(trifluoromethoxy)phenyl]-6,7-dihydro-5H-cyclopenta[d]pyridazin-4-one] gave an IC50 of 28 nM.

In the case of `CCN(CC)CCn1cncc(Nc2nn(-c3ccc(OC(F)(F)F)cc3)c(=O)c3c2CCC3)c1=O` [Example 51, 1-[[1-[2-(diethylamino)ethyl]-6-oxo-pyrimidin-5-yl]amino]-3-[4-(trifluoromethoxy)phenyl]-6,7-dihydro-5H-cyclopenta[d]pyridazin-4-one], the IC50 is reported as 44 nM.

`O=c1c(Nc2nn(-c3ccc(OC(F)(F)F)cc3)c(=O)c3c2CCC3)cncn1CCN1CCCC1` [Example 52, 1-[[6-oxo-1-(2-pyrrolidin-1-ylethyl)pyrimidin-5-yl]amino]-3-[4-(trifluoromethoxy)phenyl]-6,7-dihydro-5H-cyclopenta[d]pyridazin-4-one] showed an IC50 of 62 nM.

In the case of `Cn1cccc(Nc2nn(-c3ccc(C(C)(C)C)cc3F)c(=O)c3c2CCC3)c1=O` [Example 53, 3-(4-tert-butyl-2-fluoro-phenyl)-1-[(1-methyl-2-oxo-3-pyridyl)amino]-6,7-dihydro-5H-cyclopenta[d]pyridazin-4-one], the IC50 is reported as 24 nM.

`Cn1cccc(Nc2nn(-c3ccc(C(F)(F)F)cc3F)c(=O)c3c2CCC3)c1=O` [Example 54, 3-[2-fluoro-4-(trifluoromethyl)phenyl]-1-[(1-methyl-2-oxo-3-pyridyl)amino]-6,7-dihydro-5H-cyclopenta[d]pyridazin-4-one] showed an IC50 of 52 nM.

`CCOc1ccc(-n2nc(Nc3cccn(C)c3=O)c3c(c2=O)CCC3)cn1` [Example 55, 3-(6-ethoxy-3-pyridyl)-1-[(1-methyl-2-oxo-3-pyridyl)amino]-6,7-dihydro-5H-cyclopenta[d]pyridazin-4-one] gave an IC50 of 303 nM.

Work on `COc1ccc(-n2nc(Nc3cccn(C)c3=O)c3c(c2=O)CCC3)cn1` [Example 56, 3-(6-methoxy-3-pyridyl)-1-[(1-methyl-2-oxo-3-pyridyl)amino]-6,7-dihydro-5H-cyclopenta[d]pyridazin-4-one] yielded an IC50 of 278 nM.

Compound `COc1ccc(-n2nc(Nc3cc(F)cn(C)c3=O)c3c(c2=O)CCC3)cn1` [Example 57, 1-[(5-fluoro-1-methyl-2-oxo-3-pyridyl)amino]-3-(6-methoxy-3-pyridyl)-6,7-dihydro-5H-cyclopenta[d]pyridazin-4-one] has an IC50 of 352 nM.

`Cn1cccc(Nc2nn(-c3ccc(C(C)(C)C)nc3)c(=O)c3c2CCC3)c1=O` [Example 58, 3-(6-tert-butyl-3-pyridyl)-1-[(1-methyl-2-oxo-3-pyridyl)amino]-6,7-dihydro-5H-cyclopenta[d]pyridazin-4-one] gave an IC50 of 17 nM.

`Cn1cccc(Nc2nn(-c3ccc(OC(F)F)cc3)c(=O)c3c2CCC3)c1=O` [Example 59, 3-[4-(difluoromethoxy)phenyl]-1-[(1-methyl-2-oxo-3-pyridyl)amino]-6,7-dihydro-5H-cyclopenta[d]pyridazin-4-one] showed an IC50 of 137 nM.

Work on `Cn1cccc(Nc2nn(-c3ccc(C(F)(F)F)cc3)c(=O)c3c2CCC3)c1=O` [Example 60, 1-[(1-methyl-2-oxo-3-pyridyl)amino]-3-[4-(trifluoromethyl)phenyl]-6,7-dihydro-5H-cyclopenta[d]pyridazin-4-one] yielded an IC50 of 11 nM.

`Cn1cccc(Nc2nn(-c3ccc(OC(F)(F)F)cc3)c(=O)c3c2CC(C)(C)C3)c1=O` [Example 61, 6,6-dimethyl-1-[(1-methyl-2-oxo-3-pyridyl)amino]-3-[4-(trifluoromethoxy)phenyl]-5,7-dihydrocyclopenta[d]pyridazin-4-one] showed an IC50 of 60 nM.

For `Cn1cccc(Nc2nn(-c3ccc(OC(F)(F)F)cc3)c(=O)c3c2CCOC3)c1=O` [Example 62, 1-[(1-methyl-2-oxo-3-pyridyl)amino]-3-[4-(trifluoromethoxy)phenyl]-7,8-dihydro-5H-pyrano[3,4-d]pyridazin-4-one], the IC50 was 186 nM.

Compound `Cn1cccc(Nc2nn(-c3ccc(OC(F)(F)F)cc3)c(=O)c3c2COCC3)c1=O` [Example 63, 4-[(1-methyl-2-oxo-3-pyridyl)amino]-2-[4-(trifluoromethoxy)phenyl]-7,8-dihydro-5H-pyrano[3,4-d]pyridazin-1-one] has an IC50 of 33 nM.

In the case of `Cc1ccc(Nc2nn(-c3ccc(OC(F)(F)F)cc3)c(=O)c3ccccc23)c(=O)n1C` [Example 64, 4-[(1,6-dimethyl-2-oxo-3-pyridyl)amino]-2-[4-(trifluoromethoxy)phenyl]phthalazin-1-one], the IC50 is reported as 355 nM.

`Cc1ncc(Nc2nn(-c3ccc(OC(F)(F)F)cc3)c(=O)c3ccccc23)c(=O)[nH]1` [Example 65, 4-[(2-methyl-6-oxo-1H-pyrimidin-5-yl)amino]-2-[4-(trifluoromethoxy)phenyl]phthalazin-1-one] gave an IC50 of 405 nM.

`Cn1cncc(Nc2nn(-c3ccc(OC(F)(F)F)cc3)c(=O)c3ccccc23)c1=O` [Example 66, 4-[(1-methyl-6-oxo-pyrimidin-5-yl)amino]-2-[4-(trifluoromethoxy)phenyl]phthalazin-1-one] gave an IC50 of 36 nM.

`CCc1cc(Nc2nn(-c3ccc(OC(F)(F)F)cc3)c(=O)c3ccccc23)c(=O)n(C)c1` [Example 67, 4-[(5-ethyl-1-methyl-2-oxo-3-pyridyl)amino]-2-[4-(trifluoromethoxy)phenyl]phthalazin-1-one] was tested, and the IC50 was 563 nM.

In the case of `Cc1ccc(Nc2nn(-c3ccc(OC(F)(F)F)cc3)c(=O)c3ccccc23)c(=O)[nH]1` [Example 68, 4-[(6-methyl-2-oxo-1H-pyridin-3-yl)amino]-2-[4-(trifluoromethoxy)phenyl]phthalazin-1-one], the IC50 is reported as 1710 nM.

For `COC(=O)CCn1cccc(Nc2nn(-c3ccc(OC(F)(F)F)cc3)c(=O)c3ccccc23)c1=O` [Example 69, methyl 3-[2-oxo-3-[[4-oxo-3-[4-(trifluoromethoxy)phenyl]phthalazin-1-yl]amino]-1-pyridyl]propanoate], the IC50 was 228 nM.

`CN(C)CCn1cccc(Nc2nn(-c3ccc(OC(F)(F)F)cc3)c(=O)c3ccccc23)c1=O` [Example 70, 4-[[1-[2-(dimethylamino)ethyl]-2-oxo-3-pyridyl]amino]-2-[4-(trifluoromethoxy)phenyl]phthalazin-1-one] showed an IC50 of 19 nM.

Compound `COCCn1cccc(Nc2nn(-c3ccc(OC(F)(F)F)cc3)c(=O)c3ccccc23)c1=O` [Example 71, 4-[[1-(2-methoxyethyl)-2-oxo-3-pyridyl]amino]-2-[4-(trifluoromethoxy)phenyl]phthalazin-1-one] has an IC50 of 54 nM.

In the case of `CS(=O)(=O)CCn1cccc(Nc2nn(-c3ccc(OC(F)(F)F)cc3)c(=O)c3ccccc23)c1=O` [Example 72, 4-[[1-(2-methylsulfonylethyl)-2-oxo-3-pyridyl]amino]-2-[4-(trifluoromethoxy)phenyl]phthalazin-1-one], the IC50 is reported as 24 nM.

For `COC(=O)CCCn1cccc(Nc2nn(-c3ccc(OC(F)(F)F)cc3)c(=O)c3ccccc23)c1=O` [Example 73, methyl 4-[2-oxo-3-[[4-oxo-3-[4-(trifluoromethoxy)phenyl]phthalazin-1-yl]amino]-1-pyridyl]butanoate], the IC50 was 49 nM.

`NS(=O)(=O)CCCn1cccc(Nc2nn(-c3ccc(OC(F)(F)F)cc3)c(=O)c3ccccc23)c1=O` [Example 74, 3-[2-oxo-3-[[4-oxo-3-[4-(trifluoromethoxy)phenyl]phthalazin-1-yl]amino]-1-pyridyl]propane-1-sulfonamide] showed an IC50 of 34 nM.

`CN(C)S(=O)(=O)CCCn1cccc(Nc2nn(-c3ccc(OC(F)(F)F)cc3)c(=O)c3ccccc23)c1=O` [Example 75, N,N-dimethyl-3-[2-oxo-3-[[4-oxo-3-[4-(trifluoromethoxy)phenyl]phthalazin-1-yl]amino]-1-pyridyl]propane-1-sulfonamide] was tested, and the IC50 was 25 nM.

For `O=c1c(Nc2nn(-c3ccc(OC(F)(F)F)cc3)c(=O)c3ccccc23)cccn1CCN1CCOCC1` [Example 76, 4-[[1-(2-morpholinoethyl)-2-oxo-3-pyridyl]amino]-2-[4-(trifluoromethoxy)phenyl]phthalazin-1-one], the IC50 was 34 nM.

Work on `O=c1c(Nc2nn(-c3ccc(OC(F)(F)F)cc3)c(=O)c3ccccc23)cccn1CCN1CC(O)(C(F)(F)F)C1` [Example 77, 4-[[1-[2-[3-hydroxy-3-(trifluoromethyl)azetidin-1-yl]ethyl]-2-oxo-3-pyridyl]amino]-2-[4-(trifluoromethoxy)phenyl]phthalazin-1-one] yielded an IC50 of 108 nM.

In the case of `O=c1c(Nc2nn(-c3ccc(OC(F)(F)F)cc3)c(=O)c3ccccc23)cccn1CCN1CCC(O)C1` (stereo not shown) [Example 78, 4-[[1-[2-(3-hydroxypyrrolidin-1-yl)ethyl]-2-oxo-3-pyridyl]amino]-2-[4-(trifluoromethoxy)phenyl]phthalazin-1-one], the IC50 is reported as 31 nM.

For `COC(=O)[C@@H]1CCCN1CCn1cccc(Nc2nn(-c3ccc(OC(F)(F)F)cc3)c(=O)c3ccccc23)c1=O` [Example 79, methyl (2S)-1-[2-[2-oxo-3-[[4-oxo-3-[4-(trifluoromethoxy)phenyl]phthalazin-1-yl]amino]-1-pyridyl]ethyl]pyrrolidine-2-carboxylate], the IC50 was 32 nM.

For `CN(C)CCn1cncc(Nc2nn(-c3ccc(OC(F)(F)F)cc3)c(=O)c3ccccc23)c1=O` [Example 80, 4-[[1-[2-(dimethylamino)ethyl]-6-oxo-pyrimidin-5-yl]amino]-2-[4-(trifluoromethoxy)phenyl]phthalazin-1-one], the IC50 was 68 nM.

`CCc1ccc2c(=O)n(-c3ccc(OC(F)(F)F)cc3)nc(Nc3cccn(C)c3=O)c2c1` [Example 81, 6-ethyl-4-[(1-methyl-2-oxo-3-pyridyl)amino]-2-[4-(trifluoromethoxy)phenyl]phthalazin-1-one] showed an IC50 of 465 nM.

`CCc1ccc2c(Nc3cccn(C)c3=O)nn(-c3ccc(OC(F)(F)F)cc3)c(=O)c2c1` [Example 82, 7-ethyl-4-[(1-methyl-2-oxo-3-pyridyl)amino]-2-[4-(trifluoromethoxy)phenyl]phthalazin-1-one] was tested, and the IC50 was 79 nM.

`C=Cc1ccc2c(=O)n(-c3ccc(OC(F)(F)F)cc3)nc(Nc3cccn(C)c3=O)c2c1` [Example 83, 4-[(1-methyl-2-oxo-3-pyridyl)amino]-2-[4-(trifluoromethoxy)phenyl]-6-vinyl-phthalazin-1-one] showed an IC50 of 1490 nM.
